What was measured:
[1] = test system: patients with idiopathic pulmonary fibrosis; experiment: Phase 2 trial NCT04419506: treatment-emergent adverse events; settings: for mean observed weight loss: over 12 weeks; for Any adverse event: 18 mg twice daily, 12 weeks
Description: The study was a double-blind, placebo-controlled, parallel-design, Phase 2 study performed at 90 sites in 22 countries. […] After completion of the 12-week treatment period, patients entered a 1-week follow-up period. Patients who prematurely discontinued study medication were asked to attend all visits as originally planned to minimize missing data. […] Patients, investigators, central reviewers, and those involved in the study conduct and analysis were unaware of the treatment assignments. An interactive voice-response system was used to perform randomization.
The secondary endpoint was the percentage of patients with treatment-emergent adverse events.
All treated patients were included in the safety analysis, stratified by use of background antifibrotics (no or yes), and the analysis was descriptive in nature. Safety was assessed by clinical and laboratory evaluation and the recording of treatment-emergent adverse events, as coded with the use of the Medical Dictionary for Regulatory Activities, version 22.0.

[2] = test system: bleomycin-induced lung fibrosis; experiment: Rat bleomycin model of pulmonary fibrosis; assay type: in vivo, Wistar rats
Protocol: Pulmonary remodeling was induced in rats by a single intratracheal administration of 1 mg/kg bleomycin.
Adult, test-naïve, male Wistar rats (WI(Han)); 280-300 g) were purchased from Janvier (Janvier Labs, Le Genest-Saint-Isle, France). All animal experimentation was conducted in accordance with German national guidelines and legal regulations and approved by the ethical committee Regierungspräsidium Tübingen (Germany) (Permit Number: 12-012).
Bleomycin was dissolved in phosphate buffered saline (PBS) to a final concentration of […]. On day 0, animals were transiently anaesthetised with isoflurane (3-4%) in oxygen. Using a 1 ml-Syringe with a 22-gauge flexible cannula, 200 μL/kg of either saline or bleomycin (final dose 1 mg/kg) were administered intratracheally.
The PDE4-inhibitor of formula A′ was dissolved in 0.5% hydroxyethyl cellulose containing 0.01% Tween20 and applied by oral gavage at a dose of 2.5 mL/kg twice daily at 06:00 and 18:00 from day 10 until day 20.
On day 18, animals were anaesthetized using 3-4% isoflurane and placed on the μCT (Quantum FX) scanner mounting plate. After measurement, animals were returned to the home cage for recovery. During imaging, synchronization procedures were employed for avoidance of motion blur (respiration, heart beat) thereby improving the quality of the images. The reconstruction of the three-dimensional pictures from the raw data could subsequently be performed.
Animals were anaesthetised with Narcoren (60 mg/mL/kg body weight i.p.) and Ketamine (0.5-1 mg/animal, i.m.). The trachea was exposed, a small incision made, and a tracheal tube fixed within the trachea by a ligature. Spontaneous breathing was suppressed by pancuronium (0.8 mg/kg; 1 mL/kg body weight, i.v.) and animals were mechanically ventilated with a tidal volume of 10 mL/kg, breathing frequency of 90 breaths/minute and a positive end expiratory pressure of 3 cmH2O. Airway resistance, compliance, elastance and pressure volume loop was determined by means of a FlexiVent system supported by software version 7.2. To perform the lung function measurement the template “FlexiVent FX-Rat Default-rel.B” with the script “Rat 6basic_1loop v7.0 Lamb” was used. A deep inspiration to total lung capacity (Deep Inflation) was performed with an inflation pressure limited to 30 cmH2O. A “Snapshot-90 v7.0, Quick Prime-3 v7.0, PVS-V v7.0 and PVs-P v7.0 measurement was subsequently conducted. After the lung function measurement animals were euthanized by an overdose of Narcoren (0.16 g/5 ml, 1 ml/animal i.v.).
The right main bronchus was occluded with a ligature and the right lung was removed. […]
All data are presented as means±S.E.M. of n animals. Statistical differences between groups were analyzed by the non-clinical statistical group.

[3] = with background antifibrotics (N = 49)
[4] = without background antifibrotics
[5] = without background antifibrotics (N = 48)

[O-][S@+]1CCc2nc(N3CCC(c4ncc(Cl)cn4)CC3)nc(NC3(CO)CCC3)c21 [Compound of formula A′]
mean observed weight loss ([1]; group with antifibrotics): -1.41 kg | mean observed weight loss ([1]; group without antifibrotics): -0.76 kg | patients with fatal adverse events ([1]; treatment arm, both background groups together): 2 patients | discontinuation of the study because of adverse events ([1]; with background antifibrotics): 10 patients | patients with gastrointestinal disorders ([1]; with background antifibrotics): 36.7% | patients with serious adverse events ([1]; with background antifibrotics): 6.1% | patients with severe adverse events ([1]; with background antifibrotics): 4.1% | Adverse events leading to discontinuation of study drug [1, 3]: 10 (20.4) n (%) | Asthenia [1, 3]: 1 (2.0) n (%) | Cough [1, 3]: 4 (8.2) n (%) | Decreased appetite [1, 3]: 2 (4.1) n (%) | Diarrhea [1, 3]: 15 (30.6) n (%) | Diarrhea leading to discontinuation [1, 3]: 3 (6.1) n (%) | Dyspepsia [1, 3]: 2 (4.1) n (%) | Dyspnea [1, 3]: 0 (0.0) n (%) | Fatigue [1, 3]: 1 (2.0) n (%) | Flatulence [1, 3]: 2 (4.1) n (%) | Gastrointestinal disorders [1, 3]: 18 (36.7) n (%) | General disorders and administration site conditions [1, 3]: 7 (14.3) n (%) | Headache [1, 3]: 3 (6.1) n (%) | Infections and infestations [1, 3]: 7 (14.3) n (%) | Investigations [1, 3]: 10 (20.4) n (%) | Investigator-defined drug-related adverse events [1, 3]: 18 (36.7) n (%) | Metabolism and nutrition disorders [1, 3]: 3 (6.1) n (%) | Nasopharyngitis [1, 3]: 4 (8.2) n (%) | Nausea [1, 3]: 1 (2.0) n (%) | Nervous system disorder [1, 3]: 9 (18.4) n (%) | Patients with pre-specified adverse events of special interest (vasculitis and hepatic injury) [1, 3]: 1 (2.0) n (%) | Respiratory thoracic and mediastinal disorders [1, 3]: 6 (12.2) n (%) | Serious adverse events: All [1, 3]: 3 (6.1) n (%) | Serious adverse events: Other comparable medical criteria [1, 3]: 0 (0.0) n (%) | Serious adverse events: Required or prolonged hospitalization [1, 3]: 3 (6.1) n (%) | Serious adverse events: Resulted in death [1, 3]: 1 (2.0) n (%) | Severe adverse events [1, 3]: 2 (4.1) n (%) | Vomiting [1, 3]: 2 (4.1) n (%) | Weight decreased [1, 3]: 1 (2.0) n (%) | Any adverse event [1, 3]: 36 (73.5) n (%) | patients with serious adverse events ([1]; without antifibrotics): 6.3% | discontinuation of the study because of adverse events [1, 4]: 3 patients | patients with gastrointestinal disorders [1, 4]: 27.1% | patients with severe adverse events [1, 4]: 4.2% | Adverse events leading to discontinuation of study drug [1, 5]: 3 (6.3) n (%) | Asthenia [1, 5]: 3 (6.3) n (%) | Cough [1, 5]: 3 (6.3) n (%) | Decreased appetite [1, 5]: 1 (2.1) n (%) | Diarrhea [1, 5]: 8 (16.7) n (%) | Diarrhea leading to discontinuation [1, 5]: 0 (0.0) n (%) | Dyspepsia [1, 5]: 3 (6.3) n (%) | Dyspnea [1, 5]: 3 (6.3) n (%) | Fatigue [1, 5]: 2 (4.2) n (%) | Flatulence [1, 5]: 3 (6.3) n (%) | Gastrointestinal disorders [1, 5]: 13 (27.1) n (%) | General disorders and administration site conditions [1, 5]: 9 (18.8) n (%) | Headache [1, 5]: 3 (6.3) n (%) | Infections and infestations [1, 5]: 6 (12.5) n (%) | Investigations [1, 5]: 5 (10.4) n (%) | Investigator-defined drug-related adverse events [1, 5]: 9 (18.8) n (%) | Metabolism and nutrition disorders [1, 5]: 1 (2.1) n (%) | Nasopharyngitis [1, 5]: 0 (0.0) n (%) | Nausea [1, 5]: 2 (4.2) n (%) | Nervous system disorder [1, 5]: 4 (8.3) n (%) | Patients with pre-specified adverse events of special interest (vasculitis and hepatic injury) [1, 5]: 0 (0.0) n (%) | Respiratory thoracic and mediastinal disorders [1, 5]: 8 (16.7) n (%) | Serious adverse events: All [1, 5]: 3 (6.3) n (%) | Serious adverse events: Other comparable medical criteria [1, 5]: 1 (2.1) n (%) | Serious adverse events: Required or prolonged hospitalization [1, 5]: 2 (4.2) n (%) | Serious adverse events: Resulted in death [1, 5]: 1 (2.1) n (%) | Severe adverse events [1, 5]: 2 (4.2) n (%) | Vomiting [1, 5]: 1 (2.1) n (%) | Weight decreased [1, 5]: 2 (4.2) n (%) | Any adverse event [1, 5]: 31 (64.6) n (%) | improvement in tissue volume (ratio of remodeled tissue to total lung volume) measured by μCT ([2]; 2.5 mg/kg oral twice daily, day 10 to day 20, μCT on day 18, bleomycin 1 mg/kg intratracheal, P<0.05): 64% | restoration of lung volume measured at a pressure of 30 cmH2O ([2]; oral twice daily, day 10 to day 20, FlexiVent, P<0.05): 31% | reduction of OPN levels in lung tissue ([2]; oral twice daily, day 10 to day 20, OPN ELISA of right lung homogenate): approx. 49% | lung function ([2]; therapeutic rat model of bleomycin-induced lung fibrosis): improved lung function

Source: US20240142467A1, “Use of Biomarkers in the Treatment of Fibrotic Conditions with a PDE4B-inhibitor” (Boehringer Ingelheim International GmbH, priority 2022, published 2024)
